Results reported in patent publication US10590105B2, “1,3-dihydroxy-phenyl derivatives useful as immunomodulators” (BRISTOL-MYERS SQUIBB COMPANY, priority 2016, dated 2020).

molecular target: PD-1/PD-L1 interaction (PD-1-Ig / PD-L1-His) (Homo sapiens (Human), UniProt Q9NZQ7); assay: PD-1/PD-L1 Homogenous Time-Resolved Fluorescence (HTRF) binding assay; details: PD-1/PD-L1 HTRF binding assay; value given as range class; read-out: Range or IC50
Source text: The ability of the compounds of formula (I) to bind to PD-L1 was investigated using a PD-1/PD-L1 Homogenous Time-Resolved Fluorescence (HTRF) binding assay.
Homogenous Time-Resolved Fluorescence (HTRF) Binding Assay.
The interaction of PD-1 and PD-L1 can be assessed using soluble, purified preparations of the extracellular domains of the two proteins. The PD-1 and PD-L1 protein extracellular domains were expressed as fusion proteins with detection tags, for PD-1, the tag was the Fc portion of Immunoglobulin (PD-1-Ig) and for PD-L1 it was the 6 histidine motif (PD-L1-His). All binding studies were performed in an HTRF assay buffer consisting of dPBS supplemented with 0.1% […] bovine serum albumin and 0.05% (v/v) Tween-20. For the h/PD-L1-His binding assay, inhibitors were pre-incubated with PD-L1-His (10 nM final) for 15 m in 4 μl of assay buffer, followed by addition of PD-1-Ig (20 nM final) in 1 μl of assay buffer and further incubation for 15 m. HTRF detection was achieved using europium crypate-labeled anti-Ig (1 nM final) and allophycocyanin (APC) labeled anti-His (20 nM final). Antibodies were diluted in HTRF detection buffer and 5 μl was dispensed on top of the binding reaction. The reaction mixture was allowed to equilibrate for 30 minutes and the resulting signal (665 nm/620 nm ratio) was obtained using an EnVision fluorometer. Additional binding assays were established between the human proteins PD-1-Ig/PD-L2-His (20 & 5 nM, respectively) and CD80-His/PD-L1-Ig (100 & 10 nM, respectively).
Recombinant Proteins. Human PD-1 (25-167) with a C-terminal human Fc domain of immunoglobulin G (Ig) epitope tag [hPD-1 (25-167)-3S-IG] and human PD-L1 (18-239) with a C-terminal His epitope tag [hPD-L1(18-239)-TVMV-His] were expressed in HEK293T cells and purified sequentially by ProteinA affinity chromatography and size exclusion chromatography. Human PD-L2-His and CD80-His was obtained through commercial sources.
Ranges are as follows: A=0.001 to 0.010 micromolar; B=0.011 to 0.150 micromolar; C=0.151 to 10 micromolar.

Sequence of PD-1/PD-L1 interaction (PD-1-Ig / PD-L1-His) (Q9NZQ7 other isoform, or with tags, fused parts or gaps): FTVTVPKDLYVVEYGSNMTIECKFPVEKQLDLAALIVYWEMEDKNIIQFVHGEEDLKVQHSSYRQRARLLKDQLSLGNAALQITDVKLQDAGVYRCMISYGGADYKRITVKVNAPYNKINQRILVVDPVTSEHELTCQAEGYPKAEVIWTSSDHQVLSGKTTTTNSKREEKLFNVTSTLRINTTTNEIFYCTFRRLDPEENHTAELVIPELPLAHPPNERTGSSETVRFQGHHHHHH

| SMILES | IC50 [nM] |
| --- | --- |
| Cc1c(COc2cc(OCc3cncc(C#N)c3)c(CN[C@](C)(CO)C(=O)O)cc2Cl)cccc1-c1ccc2ncoc2c1 [Example 1017, (R)-2-((4-((3-(benzo[d]oxazol-6-yl)-2-methylbenzyl)oxy)-5-chloro-2-((5-cyanopyridin-3-yl)methoxy)benzyl)amino)-3-hydroxy-2-methylpropanoic acid] | 11 to 150 |
| Cc1c(COc2cc(OCc3cncc(C#N)c3)c(CN[C@@](C)(CO)C(=O)O)cc2Cl)cccc1-c1ccc2nccnc2c1 [Example 1036, (S)-2-((5-chloro-2-((5-cyanopyridin-3-yl)methoxy)-4-((2-methyl-3-(quinoxalin-6-yl)benzyl)oxy)benzyl)amino)-3-hydroxy-2-methylpropanoic acid] | 1 to 10 |
| Cc1c(COc2cc(OCc3cncc(C#N)c3)c(CN[C@H](CO)C(=O)O)cc2Cl)cccc1-c1ccc2nccnc2c1 [Example 1034, (R)-2-((5-chloro-2-((5-cyanopyridin-3-yl)methoxy)-4-((2-methyl-3-(quinoxalin-6-yl)benzyl)oxy)benzyl)amino)-3-hydroxypropanoic acid] | 1 to 10 |
| Cc1c(COc2cc(OCc3cncc(C#N)c3)c(CNC(C)(C)C(=O)O)cc2Cl)cccc1-c1ccc2ncoc2c1 [Example 1016, 2-((4-((3-(benzo[d]oxazol-6-yl)-2-methylbenzyl)oxy)-5-chloro-2-((5-cyanopyridin-3-yl)methoxy)benzyl)amino)-2-methylpropanoic acid] | 1 to 10 |
| Cc1c(OCCCN2CCCCC2)cccc1-c1ccnc(COc2cc(OCc3cncc(C#N)c3)c(CN3CCCC[C@H]3C(=O)O)cc2Cl)c1C [Example 2014, (S)-1-(5-chloro-2-((5-cyanopyridin-3-yl)methoxy)-4-((3-methyl-4-(2-methyl-3-(3-(piperidin-1-yl)propoxy)phenyl)pyridin-2-yl)methoxy)benzyl)piperidine-2-carboxylic acid] | 11 to 150 |
| Cc1c(COc2cc(OCc3cncc(C#N)c3)c(CN[C@](C)(CO)C(=O)O)cc2Cl)cccc1-c1ccc2cnccc2c1 [Example 1009, (R)-2-((5-chloro-2-((5-cyanopyridin-3-yl)methoxy)-4-((3-(isoquinolin-6-yl)-2-methylbenzyl)oxy)benzyl)amino)-3-hydroxy-2-methylpropanoic acid] | 11 to 150 |
| Cc1c(COc2cc(OCc3cncc(C#N)c3)c(CN[C@](C)(CO)C(=O)O)cc2Cl)cccc1-c1ccc2ccncc2c1 [Example 1008, (R)-2-((5-chloro-2-((5-cyanopyridin-3-yl)methoxy)-4-((3-(isoquinolin-7-yl)-2-methylbenzyl)oxy)benzyl)amino)-3-hydroxy-2-methylpropanoic acid] | 11 to 150 |
| Cc1c(COc2cc(OCc3cncc(C#N)c3)c(CN[C@](C)(CO)C(=O)O)cc2Cl)cccc1-c1ccc2ccoc2c1 [Example 1019, (R)-2-((4-((3-(benzofuran-6-yl)-2-methylbenzyl)oxy)-5-chloro-2-((5-cyanopyridin-3-yl)methoxy)benzyl)amino)-3-hydroxy-2-methylpropanoic acid] | 1 to 10 |
| Cc1nn(-c2cccc(COc3cc(OCc4cncc(C#N)c4)c(CNCCN4CC[C@@H](O)C4)cc3Cl)c2C)c(C)c1CNCCN1CC[C@@H](O)C1 [Example 2006, 5-((4-chloro-2-(((2-((R)-3-hydroxypyrrolidin-1-yl)ethyl)amino)methyl)-5-((3-(4-(((2-((R)-3-hydroxypyrrolidin-1-yl)ethyl)amino)methyl)-3,5-dimethyl-1H-pyrazol-1-yl)-2-methylbenzyl)oxy)phenoxy)methyl)nicotinonitrile] | 151 to 10000 |

Second part, the molecule after the results:

| IC50 [nM] | SMILES |
| --- | --- |
| 1 to 10 | Cc1c(OCCCN2CC[C@@H](O)C2)cccc1-c1ccnc(COc2cc(OCc3cncc(C#N)c3)c(CN[C@@](C)(CO)C(=O)O)cc2Cl)c1C [Example 2012, (S)-2-((5-chloro-2-((5-cyanopyridin-3-yl)methoxy)-4-((4-(3-(3-((R)-3-hydroxypyrrolidin-1-yl)propoxy)-2-methylphenyl)-3-methylpyridin-2-yl)methoxy)benzyl)amino)-3-hydroxy-2-methylpropanoic acid] |
| 151 to 10000 | Cc1nn(CCCCN2CC[C@H](O)C2)c(C)c1-c1cccc(COc2cc(OCc3cncc(C#N)c3)c(CN[C@](C)(CO)C(=O)O)cc2Cl)c1C [Example 2003, (R)-2-((5-chloro-2-((5-cyanopyridin-3-yl)methoxy)-4-((3-(1-(4-((S)-3-hydroxypyrrolidin-1-yl)butyl)-3,5-dimethyl-1H-pyrazol-4-yl)-2-methylbenzyl)oxy)benzyl)amino)-3-hydroxy-2-methylpropanoic acid] |
| 151 to 10000 | Cc1c(COc2cc(OCc3cncc(C#N)c3)c(CO)cc2Cl)cccc1-c1cccc(OCCCN2CC[C@@H](O)C2)n1 [Example 1031, (R)-5-((4-chloro-2-(hydroxymethyl)-5-((3-(6-(3-(3-hydroxypyrrolidin-1-yl)propoxy)pyridin-2-yl)-2-methylbenzyl)oxy)phenoxy)methyl)nicotinonitrile] |
| 1 to 10 | Cc1c(COc2cc(OCc3cncc(C#N)c3)c(CN3CCCC[C@H]3C(=O)O)cc2Cl)cccc1-c1ccc2oc(CCN3CC[C@@H](O)C3)nc2c1 [Example 1029, (S)-1-(5-chloro-2-((5-cyanopyridin-3-yl)methoxy)-4-((3-(2-(2-((R)-3-hydroxypyrrolidin-1-yl)ethyl)benzo[d]oxazol-5-yl)-2-methylbenzyl)oxy)benzyl)piperidine-2-carboxylic acid] |
| 11 to 150 | Cc1c(COc2cc(OCc3cncc(C#N)c3)c(CN3CCCC[C@H]3C(=O)O)cc2Cl)cccc1-c1ccc2nccnc2c1 [Example 1032, (S)-1-(5-chloro-2-((5-cyanopyridin-3-yl)methoxy)-4-((2-methyl-3-(quinoxalin-6-yl)benzyl)oxy)benzyl)piperidine-2-carboxylic acid] |
| 11 to 150 | Cc1c(COc2cc(OCc3cncc(C#N)c3)c(CN[C@](C)(CO)C(=O)O)cc2Cl)cccc1-c1ccc2occc2c1 [Example 1013, (R)-2-((4-((3-(benzofuran-5-yl)-2-methylbenzyl)oxy)-5-chloro-2-((5-cyanopyridin-3-yl)methoxy)benzyl)amino)-3-hydroxy-2-methylpropanoic acid] |
| 1 to 10 | Cc1c(COc2cc(OCc3cncc(C#N)c3)c(CN3CCCC[C@H]3C(=O)O)cc2Cl)cccc1-c1ccc2ocnc2c1 [Example 1041, (S)-1-(4-((3-(benzo[d]oxazol-5-yl)-2-methylbenzyl)oxy)-5-chloro-2-((5-cyanopyridin-3-yl)methoxy)benzyl)piperidine-2-carboxylic acid] |
| 1 to 10 | Cc1c(COc2cc(OCc3cncc(C#N)c3)c(CNC(C)(CO)CO)cc2Cl)cccc1-c1ccnc(OCCCN2CCCCC2)c1Cl [Example 2001, 5-((4-chloro-5-((3-(3-chloro-2-(3-(piperidin-1-yl)propoxy)pyridin-4-yl)-2-methylbenzyl)oxy)-2-(((1,3-dihydroxy-2-methylpropan-2-yl)amino)methyl)phenoxy)methyl)nicotinonitrile] |
| 151 to 10000 | Cc1nn(-c2cccc(COc3cc(OCc4cncc(C#N)c4)c(CN[C@](C)(CO)C(=O)O)cc3Cl)c2C)c(C)c1CN1CC[C@@H](O)C1 [Example 2009, (R)-2-((5-chloro-2-((5-cyanopyridin-3-yl)methoxy)-4-((3-(4-(((R)-3-hydroxypyrrolidin-1-yl)methyl)-3,5-dimethyl-1H-pyrazol-1-yl)-2-methylbenzyl)oxy)benzyl)amino)-3-hydroxy-2-methylpropanoic acid] |
| 1 to 10 | CCC(CO)(CO)NCc1cc(Cl)c(OCc2nccc(-c3cccc(OCCCN4CC[C@@H](O)C4)c3C)c2C)cc1OCc1cncc(C#N)c1 [Example 2013, (R)-5-((4-chloro-2-(((1-hydroxy-2-(hydroxymethyl)butan-2-yl)amino)methyl)-5-((4-(3-(3-(3-hydroxypyrrolidin-1-yl)propoxy)-2-methylphenyl)-3-methylpyridin-2-yl)methoxy)phenoxy)methyl)nicotinonitrile] |
| 1 to 10 | Cc1c(COc2cc(OCc3cncc(C#N)c3)c(CN[C@](C)(CO)C(=O)O)cc2Cl)cccc1-c1ccc2ocnc2c1 [Example 1012, (R)-2-((4-((3-(benzo[d]oxazol-5-yl)-2-methylbenzyl)oxy)-5-chloro-2-((5-cyanopyridin-3-yl)methoxy)benzyl)amino)-3-hydroxy-2-methylpropanoic acid] |
| 151 to 10000 | Cc1c(COc2cc(OCc3cncc(C#N)c3)c(CN3CCCC[C@H]3C(=O)O)cc2Cl)cccc1-c1cccn(CCCN2CC[C@@H](O)C2)c1=O [Example 1039, (S)-1-(5-chloro-2-((5-cyanopyridin-3-yl)methoxy)-4-((3-(1-(3-((R)-3-hydroxypyrrolidin-1-yl)propyl)-2-oxo-1,2-dihydropyridin-3-yl)-2-methylbenzyl)oxy)benzyl)piperidine-2-carboxylic acid] |
